Laboratory results from patent US11932657B2, “Heterocyclic compound” (priority 2018, dated 2024).
pIC50: −log10 of the molar value.

Tests used:
[1] = molecular target: T1, aryl hydrocarbon receptor (AhR) (Homo sapiens, UniProt P35869); experiment: AhR reporter gene assay (aryl hydrocarbon receptor antagonist activity, DRE-Luc HepG2 cells, TCDD-stimulated luciferase); type: cell-based
T1 construct: DRE-Luc HepG2 cells subcultured in a 225 cm^2 flask; endogenous in cells; host or cells: HepG2 (ATCC), stably transfected with the reporter hCYP1A1/pGL4.27 (DRE-Luc HepG2)
T1 sequence (P35869 11-848): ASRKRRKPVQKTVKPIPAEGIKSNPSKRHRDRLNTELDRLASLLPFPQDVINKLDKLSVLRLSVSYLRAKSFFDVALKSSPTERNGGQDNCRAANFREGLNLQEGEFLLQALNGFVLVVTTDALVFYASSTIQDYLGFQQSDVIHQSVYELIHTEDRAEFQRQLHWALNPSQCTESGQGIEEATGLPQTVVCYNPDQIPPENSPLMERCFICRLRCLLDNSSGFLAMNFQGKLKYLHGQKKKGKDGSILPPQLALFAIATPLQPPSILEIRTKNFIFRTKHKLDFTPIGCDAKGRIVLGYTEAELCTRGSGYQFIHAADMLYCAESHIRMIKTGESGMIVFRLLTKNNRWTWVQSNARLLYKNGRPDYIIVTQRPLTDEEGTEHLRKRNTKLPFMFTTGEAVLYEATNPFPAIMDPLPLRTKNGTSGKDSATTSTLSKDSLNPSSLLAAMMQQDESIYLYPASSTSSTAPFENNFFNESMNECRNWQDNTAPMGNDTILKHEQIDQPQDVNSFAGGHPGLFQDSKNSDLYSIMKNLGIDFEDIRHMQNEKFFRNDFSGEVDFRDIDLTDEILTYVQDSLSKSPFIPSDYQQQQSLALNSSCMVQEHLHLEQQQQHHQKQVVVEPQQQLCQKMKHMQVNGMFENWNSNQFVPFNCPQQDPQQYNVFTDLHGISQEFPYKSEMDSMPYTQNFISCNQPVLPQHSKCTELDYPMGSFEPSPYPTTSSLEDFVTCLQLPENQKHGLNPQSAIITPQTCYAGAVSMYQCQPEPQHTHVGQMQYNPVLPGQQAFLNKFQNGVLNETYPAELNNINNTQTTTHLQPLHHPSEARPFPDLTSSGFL
Method in brief: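 HepG2 cells stably carrying a human CYP1A1 promoter/DRE-driven luciferase reporter were pretreated with compound for 24 h at 37°C. TCDD (5×10^−10 M in the added solution) was then added for a further 24 h. Firefly luciferase luminescence was read as the measure of antagonism.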

[2] = system: immortalized megakaryocyte line (SeV2-MKCL); experiment: Platelet production: static culturing of immortalized megakaryocyte line; type: cell-based; details: compound final concentration 0.1 μM, static culturing 6 to 7 days, control (DMSO) set to 1; platelets = CD41, CD42b and CD42a-positive cells
Method in brief: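 SeV2-MKCL cells, washed free of doxycycline to stop forced expression, seeded at 1×10^5 cells/mL in IMDM-based medium with compound (final 0.1 μM) or DMSO, static culture 6–7 days, 37° C., 5% CO2. CD41/CD42a/CD42b-positive platelets counted by bead-corrected flow cytometry; platelets per megakaryocyte expressed as fold over DMSO control.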

Structure (SMILES) | pIC50 [1] | Static (vs veh): fold increase of platelet production efficiency (PLT/MK) [2]
CC1(C)COc2nc3c(NCCc4c[nH]c5ccccc45)nc(-c4cccc(F)c4)nc3n21 [Example 85] | 7.57 | 6.1
CC1(C)COc2nc3c(NCCc4ccc(O)c(-c5c(F)cccc5F)c4)nc(-c4cncc(C#N)c4)nc3n21 [Example 45] | 7.96 | 2.4
CC1(C)CSc2nc3c(NCCc4ccc(O)c(-c5ccccc5F)c4)nc(-c4cncc(C#N)c4)nc3n21 [Example 38] | 9.31 | 4.9
C[C@@H]1CSc2nc3c(NCCc4ccc(O)c(-c5ccccc5)c4)nc(-c4cncc(F)c4)nc3n21 [Example 49] | 9.44 | 5.5
C[C@@H]1CSc2nc3c(NCCc4ccc(O)c(-c5cncc(F)c5)c4)nc(-c4cncc(F)c4)nc3n21 [Example 71] | 8.33 | 7.2
CC1(C)CSc2nc3c(NCCc4ccc(O)c(-c5cncc(C#N)c5)c4)nc(-c4cncc(F)c4)nc3n21 [Example 76] | 8.24 | 2.4
C[C@@H]1CSc2nc3c(NCCc4ccc(O)c(-c5ccccc5)c4)nc(-c4cncc(C#N)c4)nc3n21 [Example 50] | 9.15 | 6.6
C[C@@H]1CSc2nc3c(NCCc4ccc(O)c(-c5ccccc5F)c4)nc(-c4cncc(C#N)c4)nc3n21 [Example 39] | 8.92 | 4.3
C[C@@H]1CSc2nc3c(NCCc4ccc(O)c(-c5ccccc5F)c4)nc(-c4cncc(F)c4)nc3n21 [Example 28] | 9.40 | 9.7
CC1(C)COc2nc3c(NCCc4ccc(O)c(-c5ccc(C#N)cc5)c4)nc(-c4cncc(F)c4)nc3n21 [Example 18] | 8.16 | 7.3
Fc1cncc(-c2nc(NCCc3c[nH]c4ccccc34)c3nc4n(c3n2)CCCS4)c1 [Example 109] | 7.96 | 7.8
CC1(C)COc2nc3c(NCCc4ccc(O)c(-c5cncc(F)c5)c4)nc(-c4cncc(F)c4)nc3n21 [Example 43, 2-(5-fluoropyridin-3-yl)-4-[2-[[2-(5-fluoropyridin-3-yl)-8,8-dimethyl-7H-purino[8,9-b][1,3]oxazol-4-yl]amino]ethyl]phenol] | 7.59 | 7.1
CC1(C)COc2nc3c(NCCc4c[nH]c5ccccc45)nc(-c4cncc(C#N)c4)nc3n21 [Example 92] | 7.48 | 2.6
Cc1cncc(-c2nc(NCCc3ccc(O)c(-c4cc(C#N)ccc4F)c3)c3nc4n(c3n2)C(C)(C)CO4)c1 [Example 66] | 8.09 | 4.8
Cc1cncc(-c2nc(NCCc3ccc(O)c(-c4ccccc4)c3)c3nc4n(c3n2)C(C)(C)CO4)c1 [Example 22] | 8.01 | 7.3
CC1(C)COc2nc3c(NCCc4ccc(O)c(-c5cc(F)cc(C#N)c5)c4)nc(-c4cncc(C#N)c4)nc3n21 [Example 69] | 7.89 | 4.7
CC1(C)COc2nc3c(NCCc4ccc(O)c(-c5cccc(S(C)(=O)=O)c5)c4)nc(-c4cncc(F)c4)nc3n21 [Example 78] | 8.41 | 4.3
C[C@@H]1CSc2nc3c(NCCc4ccc(O)c(-c5cccc(C#N)c5)c4)nc(-c4cncc(F)c4)nc3n21 [Example 58] | 9.34 | 5.1
CC1(C)COc2nc3c(NCCc4ccc(O)c(-c5cccc(C#N)c5)c4)nc(-c4cncc(F)c4)nc3n21 [Example 17, 3-[5-[2-[[2-(5-fluoropyridin-3-yl)-8,8-dimethyl-7H-purino[8,9-b][1,3]oxazol-4-yl]amino]ethyl]-2-hydroxyphenyl]benzonitrile] | 8.64 | 7.8
CC1(C)CSc2nc3c(NCCc4ccc(O)c(-c5cccc(C#N)c5)c4)nc(-c4cncc(C#N)c4)nc3n21 [Example 60] | 9.37 | 3.4
CC1(C)CSc2nc3c(NCCc4ccc(O)c(-c5ccccc5)c4)nc(-c4cncc(C#N)c4)nc3n21 [Example 48] | 9.38 | 3.5
CC1(C)COc2nc3c(NCCc4ccc(O)c(-c5cccc(C#N)c5)c4)nc(-c4ccc5nccn5c4)nc3n21 [Example 63] | 7.77 | 4.8
CC1(C)COc2nc3c(NCCc4ccc(O)c(-c5cccc(F)c5)c4)nc(-c4cncc(F)c4)nc3n21 [Example 3] | 8.54 | 6.8
C[C@@H]1C[S+]([O-])c2nc3c(NCCc4c[nH]c5ccccc45)nc(-c4cncc(F)c4)nc3n21 (some centres unmarked) [Example 108] | 8.39 | 6.6
CC1(C)COc2nc3c(NCCc4ccc(O)c(-c5ccc(F)cc5)c4)nc(-c4cncc(F)c4)nc3n21 [Example 4] | 8.30 | 6.7
Cc1cncc(-c2nc(NCCc3ccc(O)c(-c4ccc(F)cc4)c3)c3nc4n(c3n2)C(C)(C)CO4)c1 [Example 25] | 8.36 | 5.7
Cc1cncc(-c2nc(NCCc3ccc(O)c(-c4cccc(C#N)c4F)c3)c3nc4n(c3n2)C(C)(C)CO4)c1 [Example 68] | 8.55 | 3.2
C[C@H]1CSc2nc3c(NCCc4ccc(O)c(-c5ccccc5F)c4)nc(-c4cncc(F)c4)nc3n21 [Example 30] | 9.11 | 6.7
